Reference: PMC3639963, “A New Class of Small Molecule Inhibitor of BMP Signaling” (PLoS ONE, 2013)

Assays:
Assay in all cases: Nanosyn kinase profiling
Type in all cases: biochemical
Details in all cases: read-out: Percentage inhibition; for inhibition at 0.1 µM: 0.1 µM inhibitor; for inhibition at 1 µM: 1 µM inhibitor
YES = molecular target: T1, YES (Homo sapiens, UniProt P07947)
T1 construct: purchased Nanosyn (enzymatic panel); SGC in-house recombinant human kinases (DSF panel); Invitrogen (ALK1-6)
Method in brief: (§1)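 Percent inhibition of each kinase was measured with the inhibitor at 0.1 µM and at 1 µM, as part of a 200-kinase human selectivity panel.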

GSK3β = molecular target: T2, GSK3β (Homo sapiens, UniProt P49841)
T2 construct: purchased Nanosyn (enzymatic panel); SGC in-house recombinant human kinases (DSF panel); Invitrogen (ALK1-6)
Method in brief: as §1

HIPK4 = molecular target: T3, HIPK4 (Homo sapiens, UniProt Q8NE63)
T3 construct: purchased Nanosyn (enzymatic panel); SGC in-house recombinant human kinases (DSF panel); Invitrogen (ALK1-6)
T3 sequence (Q8NE63 1-616): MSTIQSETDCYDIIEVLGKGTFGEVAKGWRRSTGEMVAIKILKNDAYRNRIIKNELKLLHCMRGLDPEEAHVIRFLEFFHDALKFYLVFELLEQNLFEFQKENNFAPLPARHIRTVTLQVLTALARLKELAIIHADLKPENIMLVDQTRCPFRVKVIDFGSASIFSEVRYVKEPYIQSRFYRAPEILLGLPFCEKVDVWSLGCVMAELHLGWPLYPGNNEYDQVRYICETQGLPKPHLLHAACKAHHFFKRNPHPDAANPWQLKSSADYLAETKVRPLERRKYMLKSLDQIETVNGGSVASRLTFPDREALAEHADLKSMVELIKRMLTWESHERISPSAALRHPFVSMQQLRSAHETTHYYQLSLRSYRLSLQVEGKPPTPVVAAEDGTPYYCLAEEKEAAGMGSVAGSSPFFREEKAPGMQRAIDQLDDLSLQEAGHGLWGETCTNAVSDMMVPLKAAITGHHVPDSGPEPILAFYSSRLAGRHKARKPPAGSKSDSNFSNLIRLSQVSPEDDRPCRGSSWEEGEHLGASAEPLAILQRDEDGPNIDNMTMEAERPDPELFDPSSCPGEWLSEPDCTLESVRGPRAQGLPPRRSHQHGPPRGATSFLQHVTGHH
Method in brief: as §1

PAR1Bα = molecular target: T4, PAR1Bα (Homo sapiens, UniProt Q7KZI7)
T4 construct: purchased Nanosyn (enzymatic panel); SGC in-house recombinant human kinases (DSF panel); Invitrogen (ALK1-6)
Method in brief: as §1

MUSK = molecular target: T5, MUSK (Homo sapiens, UniProt O15146)
T5 construct: purchased Nanosyn (enzymatic panel); SGC in-house recombinant human kinases (DSF panel); Invitrogen (ALK1-6)
T5 sequence (O15146 24-869): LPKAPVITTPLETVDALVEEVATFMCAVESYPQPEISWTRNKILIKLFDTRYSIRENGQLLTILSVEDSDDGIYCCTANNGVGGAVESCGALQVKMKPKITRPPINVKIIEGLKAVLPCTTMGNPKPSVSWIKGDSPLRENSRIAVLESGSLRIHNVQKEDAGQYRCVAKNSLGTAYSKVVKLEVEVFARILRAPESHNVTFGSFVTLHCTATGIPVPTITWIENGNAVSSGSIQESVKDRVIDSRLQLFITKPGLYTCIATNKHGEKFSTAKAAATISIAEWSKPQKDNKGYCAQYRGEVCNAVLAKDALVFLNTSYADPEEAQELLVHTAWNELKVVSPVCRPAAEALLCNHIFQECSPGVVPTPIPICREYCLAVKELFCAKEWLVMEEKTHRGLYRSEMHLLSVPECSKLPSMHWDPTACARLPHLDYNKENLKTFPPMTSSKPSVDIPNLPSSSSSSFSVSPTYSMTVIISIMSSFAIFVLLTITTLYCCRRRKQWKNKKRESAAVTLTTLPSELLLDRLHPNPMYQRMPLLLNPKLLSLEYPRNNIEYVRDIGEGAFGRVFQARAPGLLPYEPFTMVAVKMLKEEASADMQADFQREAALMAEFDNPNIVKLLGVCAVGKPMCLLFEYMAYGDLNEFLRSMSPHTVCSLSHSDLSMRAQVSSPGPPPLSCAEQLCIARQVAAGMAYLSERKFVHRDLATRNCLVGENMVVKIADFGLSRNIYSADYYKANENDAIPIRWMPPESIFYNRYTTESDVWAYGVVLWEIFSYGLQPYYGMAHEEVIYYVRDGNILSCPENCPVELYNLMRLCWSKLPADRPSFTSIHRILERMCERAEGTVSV
Method in brief: as §1

IKK-α = molecular target: T6, IKK-α (Homo sapiens, UniProt O15111)
T6 construct: purchased Nanosyn (enzymatic panel); SGC in-house recombinant human kinases (DSF panel); Invitrogen (ALK1-6)
T6 sequence (O15111 1-745): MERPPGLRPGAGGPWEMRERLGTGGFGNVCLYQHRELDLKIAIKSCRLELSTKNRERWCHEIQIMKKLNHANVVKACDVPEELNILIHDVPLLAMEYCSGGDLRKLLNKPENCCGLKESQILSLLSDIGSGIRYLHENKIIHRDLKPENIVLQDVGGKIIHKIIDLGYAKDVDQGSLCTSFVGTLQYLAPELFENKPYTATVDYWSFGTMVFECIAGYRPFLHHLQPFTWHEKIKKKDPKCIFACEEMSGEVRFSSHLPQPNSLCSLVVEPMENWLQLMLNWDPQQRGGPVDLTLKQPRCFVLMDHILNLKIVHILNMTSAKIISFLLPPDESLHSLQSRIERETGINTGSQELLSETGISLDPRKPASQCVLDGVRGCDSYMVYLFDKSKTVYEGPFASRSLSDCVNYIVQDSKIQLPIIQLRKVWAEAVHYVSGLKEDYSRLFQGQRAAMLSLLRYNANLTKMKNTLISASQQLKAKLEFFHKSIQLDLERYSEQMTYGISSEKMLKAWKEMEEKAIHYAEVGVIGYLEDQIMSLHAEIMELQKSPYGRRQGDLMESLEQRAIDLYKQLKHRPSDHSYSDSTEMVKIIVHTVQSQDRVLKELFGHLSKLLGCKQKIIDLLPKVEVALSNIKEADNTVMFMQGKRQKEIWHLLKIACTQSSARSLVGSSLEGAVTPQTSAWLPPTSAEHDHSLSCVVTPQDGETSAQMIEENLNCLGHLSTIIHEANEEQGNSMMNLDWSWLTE
Method in brief: as §1

T2 sequence (P49841 whole entry): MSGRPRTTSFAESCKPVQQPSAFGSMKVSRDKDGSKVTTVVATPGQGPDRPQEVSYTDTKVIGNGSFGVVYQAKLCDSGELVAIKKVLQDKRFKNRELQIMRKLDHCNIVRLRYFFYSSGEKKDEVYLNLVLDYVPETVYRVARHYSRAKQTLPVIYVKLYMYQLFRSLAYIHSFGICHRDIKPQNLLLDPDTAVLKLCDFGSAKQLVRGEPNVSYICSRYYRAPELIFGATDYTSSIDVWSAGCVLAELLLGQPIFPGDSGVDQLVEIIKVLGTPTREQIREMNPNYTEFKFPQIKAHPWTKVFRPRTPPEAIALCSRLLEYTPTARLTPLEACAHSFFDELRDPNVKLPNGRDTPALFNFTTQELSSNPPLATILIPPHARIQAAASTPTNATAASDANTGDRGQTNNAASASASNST
T4 sequence (Q7KZI7 1-725 isoform Q7KZI7-4): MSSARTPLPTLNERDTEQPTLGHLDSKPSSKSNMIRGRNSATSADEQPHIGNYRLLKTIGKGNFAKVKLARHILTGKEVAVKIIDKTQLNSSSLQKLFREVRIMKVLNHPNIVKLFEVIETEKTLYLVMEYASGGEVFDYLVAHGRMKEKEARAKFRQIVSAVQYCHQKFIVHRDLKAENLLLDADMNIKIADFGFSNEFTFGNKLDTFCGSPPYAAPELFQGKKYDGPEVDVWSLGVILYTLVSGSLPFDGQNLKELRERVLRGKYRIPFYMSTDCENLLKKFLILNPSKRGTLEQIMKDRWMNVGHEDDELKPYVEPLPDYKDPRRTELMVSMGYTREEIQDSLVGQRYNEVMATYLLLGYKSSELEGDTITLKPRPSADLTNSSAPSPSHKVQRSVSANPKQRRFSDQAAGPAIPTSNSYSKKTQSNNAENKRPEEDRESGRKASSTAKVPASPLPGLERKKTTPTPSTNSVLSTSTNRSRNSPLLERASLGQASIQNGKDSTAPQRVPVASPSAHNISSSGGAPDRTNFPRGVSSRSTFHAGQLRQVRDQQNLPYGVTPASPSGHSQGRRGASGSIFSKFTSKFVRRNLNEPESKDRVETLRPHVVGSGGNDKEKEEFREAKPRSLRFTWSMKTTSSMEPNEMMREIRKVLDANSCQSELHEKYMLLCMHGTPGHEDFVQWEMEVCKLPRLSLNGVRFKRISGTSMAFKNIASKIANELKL
T1 sequence (P07947 whole entry): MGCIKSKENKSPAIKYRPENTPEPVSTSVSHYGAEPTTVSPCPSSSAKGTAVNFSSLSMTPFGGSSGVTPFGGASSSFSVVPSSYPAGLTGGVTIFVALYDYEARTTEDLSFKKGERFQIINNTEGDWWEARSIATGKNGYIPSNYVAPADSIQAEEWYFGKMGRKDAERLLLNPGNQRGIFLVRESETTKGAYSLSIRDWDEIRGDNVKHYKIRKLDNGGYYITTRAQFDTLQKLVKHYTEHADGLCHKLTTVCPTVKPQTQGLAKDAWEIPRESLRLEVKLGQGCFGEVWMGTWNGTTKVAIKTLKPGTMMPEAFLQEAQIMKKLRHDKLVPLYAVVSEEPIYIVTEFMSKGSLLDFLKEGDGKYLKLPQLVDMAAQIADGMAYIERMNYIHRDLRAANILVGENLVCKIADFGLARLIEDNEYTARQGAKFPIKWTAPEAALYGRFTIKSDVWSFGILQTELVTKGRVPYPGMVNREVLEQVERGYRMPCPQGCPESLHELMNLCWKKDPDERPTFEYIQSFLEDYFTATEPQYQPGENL

Structure (SMILES)	inhibition at 0.1 µM (YES)	inhibition at 1 µM (YES)	inhibition at 0.1 µM (GSK3β)	inhibition at 1 µM (GSK3β)	inhibition at 0.1 µM (HIPK4)	inhibition at 1 µM (HIPK4)	inhibition at 0.1 µM (PAR1Bα)	inhibition at 1 µM (PAR1Bα)	inhibition at 0.1 µM (MUSK)	inhibition at 1 µM (MUSK)	inhibition at 0.1 µM (IKK-α)	inhibition at 1 µM (IKK-α)
COc1cc(-c2cc(-c3cccc(O)c3)cnc2N)cc(OC)c1OC [K02288, 3-[6-amino-5-(3,4,5-trimethoxy-phenyl)-pyridin-3-yl]-phenol]	4.9%	34%	0.5%	1.6%	0.8%	4.2%	2.3%	7%	1.2%	-1%	7.4%	2.7%
c1ccc2c(-c3cnn4cc(-c5ccc(N6CCNCC6)cc5)cnc34)ccnc2c1 [LDN-193189]	12%	50%	2.7%	2.1%	0%	4.9%	6.9%	43%	5.8%	26%	3%	-2%
